Data as given in patent publication US7759377B2, “Acylaminothiazole derivatives and use thereof as beta-amyloid inhibitors” (Sanofi-Aventis, priority 2004, dated 2010).

Target: T1, gamma-secretase (Homo sapiens, UniProt P49768, M146L)
T1 construct: expressed in transfected cells; host or cells: CHO-K1, clone 30-12
Assay: β-amyloid cellular test: inhibition of production of β-A4 peptide, ELISA of cellular supernatants
Type: cell-based
Conditions: CHO-K1 line coexpressing CT100 of APP and PS1 M146L clone 30-12; 24-25 h incubation; secreted amyloid peptide by ELISA
Text: For the β-amyloid cellular test, the CHO—K1 line coexpressing the CT100 of APP and PS1 M146L clone 30-12 is used. The line targets the inhibition of gamma-secretase. Presenilin is linked to gamma-secretase activity (Wolfe M S, Haass C., The Role of presenilins in gamma-secretase activity, J. Biol. Chem. 2001, 276(8): 5413-6) and its coexpression with the amyloid protein or its N-terminal fragment causes an increase in secretion of the peptide A1-42 (β-A4), thereby generating a pharmacological tool which allows inhibition by the compounds of formula (I) of the production of the β-A4 peptide to be evaluated. 96-well culture plates are inoculated with 1×10^5 cells per well in 150 μl of incubation medium. The presence of a minimum percentage (1.3% final) of serum allows cellular adhesion to the plastic after 2-3 hours of incubation at 37° C., in the presence of 5% CO2. The products (15 μl) are tested at 10 μM DMSO 1% final and are incubated for 24-25 h at 37° C. in the presence of 5% CO2 and 100% humidity. After this 24-25 h incubation, the cellular supernatants (100 μl) are transferred to ELISA plates, treated with the capture antibody 6E10 (6E10, epitope: aa1-17, INTERCHIM/SENETEK 320/10), to determine the amount of amyloid peptides secreted by the cells in the presence of compounds according to the invention. A series of synthetic control peptide, “peptide 1-40”, at 5 and 10 ng/ml is treated in parallel. The ELISA plates are incubated overnight at 4° C.
The quantity of bound peptide is detected indirectly in the presence of a competitor which corresponds to the truncated peptide, peptide 1-28 coupled to biotin, which is then detected with streptavidin coupled to alkaline phosphatase. The substrate, p-nitrophenyl phosphate (pNPP FAST p-Nitrophenyl Phosphate, Sigma N2770), gives a yellow, soluble reaction product which can be read at 405 nm. The reaction is stopped with 0.1 M EDTA solution. For this purpose, following binding of the amyloid peptide in the ELISA plate, 50 μl of biotinylated peptide 1-28 are added to 100 μl of cellular supernatant and incubated for 30 minutes at ambient temperature. The ELISA plates are then washed 3 times. After drying by inversion on absorbent paper, 100 μl of streptavidin-alkaline phosphatase (Interchim/Jackson ImmunoResearch Laboratories 016-050-084) are added per well and incubated for 1 hour at ambient temperature. The plates are washed again and then the alkaline phosphatase substrate (pNPP 1 mg/ml) is added in an amount of 100 μl per well. After 30 minutes of incubation at ambient temperature the reaction is stopped by adding 100 μl per well of 0.1 M EDTA and reading is carried out at 405 nm.

EC50 [nM]	Compound
52	CCC[C@H](NC(=O)[C@@H](O)C(C)(C)C)C(=O)Nc1nc(-c2nc(-c3ccccc3)no2)c(C(C)C)s1 [Compound 7]
42	CCC[C@H](NC(=O)[C@@H](O)C(C)(C)C)C(=O)Nc1nc(-c2nc3ccccc3o2)c(C(C)C)s1 [Compound 34, 2-{2-(S)-[2-(S)-hydroxy(3,3-dimethyl)butyrylamino]pentanoyl}amino-5-(1-methylethyl)-4-(1,3-benzoxazol-2-yl)thiazole]
85	CCCC(NC(=O)C(O)c1cc(F)cc(F)c1)C(=O)Nc1nc(C)c(-c2nc(C)no2)s1 (stereo not shown) [Compound 40]
94	CCC[C@H](NC(=O)[C@@H](O)C(C)(C)C)C(=O)Nc1ncc(-c2nnnn2Cc2ccccc2)s1 [Compound 51, 2-{2-(S)-[2-(S)-hydroxy(3,3-dimethyl)butyrylamino]pentanoyl}amino-5-(1-benzyl-1H-tetrazol-5-yl)thiazole]
